The test system of one test is HeLa. Kind of test: cells. It counts as functional, cell-based. The conditions noted are these: Homo sapiens, 48 h.
A further test deals with Histone deacetylase. As to the kind of experiment: Inhibition of HDAC in human HeLa cell nuclear extract using acetylated lysine as substrate after 30 mins by spectrophotometric analysis. It is filed as protein assay.
The subject of the next test is MDA-MB-231. Kind of test: cells. It is filed as functional, cell-based. To be noted: Homo sapiens, MDA-MB-231, 48 h.

Description for HeLa: Growth inhibition of human HeLa cells after 48 hrs by MTT assay
Description for MDA-MB-231: Growth inhibition of human MDA-MB-231 cells after 48 hrs by MTT assay

Usually IC50 stands for the concentration that inhibits the measured activity by half. Higher therefore signals weaker potency. Regarding `COc1ccc(NC(=O)COc2cc(/C=C/C(=O)NO)ccc2OC)cc1`, the half-maximal inhibitory concentration (IC50) in the test on HeLa was 4.87 µM; at Histone deacetylase, 0.94 µM; in the test on MDA-MB-231, 3.81 µM.

As to `COc1ccc(/C=C/C(=O)Nc2ccc(C)cc2N)cc1OCC(=O)Nc1ccc(Cl)c(Cl)c1`, the IC50 against Histone deacetylase was over 200 µM.

As for `COc1ccc(/C=C/C(=O)Nc2ccc(C)cc2N)cc1OCC(=O)Nc1ccccc1F`, the IC50 against Histone deacetylase amounted to 29.5 µM.

On Histone deacetylase, `COc1ccc(/C=C/C(=O)Nc2ccccc2N)cc1OCC(=O)Nc1cccc(F)c1` displayed a half-maximal inhibitory concentration (IC50) of 24.01 µM.

`COc1ccc(/C=C/C(=O)Nc2ccc(C)cc2N)cc1OCC(=O)Nc1cccc(C(F)(F)F)c1`: at Histone deacetylase, the IC50 is over 200 µM.

`COc1ccc(/C=C/C(=O)NO)cc1OCC(=O)Nc1cc(C(F)(F)F)cc(C(F)(F)F)c1` returned an IC50 against Histone deacetylase of 4.91 µM.

`COc1ccc(/C=C/C(=O)Nc2ccc(C)cc2N)cc1OCC(=O)Nc1ccc(F)c(Cl)c1` came in with an IC50 on Histone deacetylase of 31.32 µM.

At Histone deacetylase, `COc1ccc(/C=C/C(=O)Nc2ccccc2N)cc1OCC(=O)Nc1cc(C(F)(F)F)cc(C(F)(F)F)c1` gave an IC50 of over 200 µM.

In turn, `COc1ccc(NC(=O)COc2cc(/C=C/C(=O)Nc3ccccc3N)ccc2OC)cc1` registered an IC50 on Histone deacetylase of 49.3 µM.

`COc1ccc(/C=C/C(=O)Nc2ccc(C)cc2N)cc1OCC(=O)Nc1cc(Br)cc(C(F)(F)F)c1` had a half-maximal inhibitory concentration (IC50) against Histone deacetylase of 124.67 µM.

In the case of `COc1ccc(/C=C/C(=O)NO)cc1OCC(=O)Nc1ccccc1F`, the 50% inhibitory concentration (IC50) turned out to be 3.91 µM in the test on HeLa, 0.57 µM at Histone deacetylase and 15.6 µM with MDA-MB-231.

With `COc1ccc(/C=C/C(=O)Nc2ccc(C)cc2N)cc1OCC(=O)Nc1cc(C(F)(F)F)cc(C(F)(F)F)c1`, the IC50 on Histone deacetylase amounted to 56.71 µM.

As to `COc1ccc(NC(=O)COc2cc(/C=C/C(=O)Nc3ccc(C)cc3N)ccc2OC)cc1`, the half-inhibitory concentration (IC50) at Histone deacetylase came to 164.61 µM.

With `COc1ccc(/C=C/C(=O)NO)cc1OCC(=O)Nc1ccc(Br)cc1`, the IC50 in the test on HeLa is 5.39 µM; on Histone deacetylase, 0.73 µM; in the test with MDA-MB-231, 5.87 µM.

The molecule `COc1ccc(/C=C/C(=O)NO)cc1OCC(=O)Nc1ccc(F)c(Cl)c1` yielded a concentration for half-maximal inhibition (IC50) against Histone deacetylase of 5.82 µM.

For `COc1ccc(/C=C/C(=O)Nc2ccccc2N)cc1OCC(=O)Nc1ccccc1F`, the results for the concentration for half-maximal inhibition (IC50) in the test with HeLa, against Histone deacetylase and in the test on MDA-MB-231 were 20.5 µM, 15.6 µM and 15.5 µM, respectively.

The molecule `COc1ccc(/C=C/C(=O)Nc2ccccc2N)cc1OCC(=O)Nc1ccc(Br)cc1` gave an IC50 at Histone deacetylase of over 200 µM.

Molecule `COc1ccc(/C=C/C(=O)Nc2ccccc2N)cc1OCC(=O)Nc1cc(Br)cc(C(F)(F)F)c1` came in with an IC50 at Histone deacetylase of over 200 µM.

Regarding `COc1ccc(/C=C/C(=O)NO)cc1OCC(=O)Nc1ccc(Cl)c(Cl)c1`, the IC50 in the test on HeLa worked out at 13.3 µM; at Histone deacetylase it was 1.37 µM; with MDA-MB-231, 1.9 µM.

`COc1ccc(/C=C/C(=O)Nc2ccccc2N)cc1OCC(=O)Nc1ccc(F)c(Cl)c1` returned a 50% inhibitory concentration (IC50) at Histone deacetylase of 66.52 µM.

In the case of `COc1ccc(/C=C/C(=O)Nc2ccc(C)cc2N)cc1OCC(=O)Nc1cccc(F)c1`, at Histone deacetylase, the IC50 came out at 71.02 µM.

With `COc1ccc(/C=C/C(=O)Nc2ccccc2N)cc1OCC(=O)Nc1cccc(C(F)(F)F)c1`, the IC50 at Histone deacetylase is 22.16 µM.

On to `COc1ccc(/C=C/C(=O)NO)cc1OCC(=O)Nc1cc(Br)cc(C(F)(F)F)c1`, for which the half-inhibitory concentration (IC50) against Histone deacetylase was 9.04 µM.

`COc1ccc(/C=C/C(=O)NO)cc1OCC(=O)Nc1cccc(F)c1`: the concentration for half-maximal inhibition (IC50) with HeLa was determined as 6.48 µM; on Histone deacetylase it was 2.81 µM; in the test with MDA-MB-231, 3.41 µM.

Take `COc1ccc(/C=C/C(=O)Nc2ccc(C)cc2N)cc1OCC(=O)Nc1ccc(Br)cc1`: the IC50 at Histone deacetylase amounted to 58.24 µM.

Consider `COc1ccc(/C=C/C(=O)NO)cc1OCC(=O)Nc1cccc(C(F)(F)F)c1`, for which the IC50 at Histone deacetylase came out at 2.96 µM.

`COc1ccc(/C=C/C(=O)Nc2ccccc2N)cc1OCC(=O)Nc1ccc(Cl)c(Cl)c1` had a half-inhibitory concentration (IC50) at Histone deacetylase of over 200 µM.
